Values of other authors as cited in US20100179115A1, “USE OF A GLUCOCORTICOID RECEPTOR II ANTAGONIST TO TREAT DEPRESSION IN PATIENTS TAKING IL-2” (Corcept Therapeutics, Inc., priority 2006, published 2010).

Assays:
[1] = in one study (Kawai)
[2] = test system: IL-1 induced memory deficits; details: Song 2002
[3] = test system: severe major depression; details: four patients, one completed, no control group; Murphy 1993

## CC#C[C@]1(O)CC[C@H]2[C@@H]3CCC4=CC(=O)CCC4=C3[C@@H](c3ccc(N(C)C)cc3)C[C@@]21C [Mifepristone, 17-beta-hydroxy-11-beta-(4-dimethyl-aminophenyl)-17-alpha-(1-propynyl)-estra-4,9-dien-3-one]
[1]
  fraction of the daily dose excreted in the urine: less than 0.5%
[2]; after one or two treatments
  recovery of rats that did not recover from the deleterious effects of IL-1: complete recovery
[2]; rats, i.c.v. injection immediately prior to IL-1
  effect on learning and memory impairments associated with IL-1 administration: significant reduction in learning and memory impairments
[3]
  effectiveness in treating depression: no clear evidence that RU486 was effective
